Data taken from patent US12520844B2 (Bayer Aktiengesellschaft, priority 2020, dated 2026).

Test: Measurement of Log P values by HPLC on reversed phase columns (EEC directive 79/831 Annex V.A8)
Assay type: physicochemical
Description: Measurement of Log P values as provided herein was performed according to EEC directive 79/831 Annex V.A8 by HPLC (High Performance Liquid Chromatography) on reversed phase columns with the following methods: • ^[a] Log P value is determined by measurement of LC-UV, in an acidic range, with 0.1% formic acid in water and acetonitrile as eluent (linear gradient from 10% acetonitrile to 95% acetonitrile). • ^[b] Log P value is determined by measurement of LC-UV, in a neutral range, with 0.001 molar ammonium acetate solution in water and acetonitrile as eluent (linear gradient from 10% acetonitrile to 95% acetonitrile). • ^[c] Log P value is determined by measurement of LC-UV, in an acidic range, with 0.1% phosphoric acid and acetonitrile as eluent (linear gradient from 10% acetonitrile to 95% acetonitrile).
If more than one Log P value is available within the same method, all the values are given and separated by “+”.
Calibration was done with straight-chain alkan2-ones (with 3 to 16 carbon atoms) with known Log P values (measurement of Log P values using retention times with linear interpolation between successive alkanones). Lambda-max-values were determined using UV-spectra from 200 nm to 400 nm and the peak values of the chromatographic signals

Structure (SMILES)	LogP	chromatographic logP
Cc1ncc(Oc2cccc(C3CC3)c2F)c(C(=O)NC2CCC(C)c3ccccc32)n1 (mixture of isomers) [Compound I-065]	4.40^[a]	
Cc1ncc(Oc2cccc(C3CC3)c2F)c(C(=O)NC2CC23CCc2cc(Br)ccc23)n1 (mixture of isomers) [Compound I-091]	4.73^[a]	
Cc1nnc(Oc2cccc(C(F)(F)F)c2)c(C(=O)NCC(Cl)c2ccc(Cl)cc2Cl)n1 (racemic) [Compound I-020]	4.34^[a]	
Cc1ncc(Oc2cccc(C3CC3)c2F)c(C(=O)NC2CCOc3ccc(F)cc32)n1 (racemic) [Compound I-030]	3.62^[a]	
Cc1ncc(Oc2cccc(C3CC3)c2F)c(C(=O)NC2CCSc3ccc(F)cc32)n1 (racemic) [Compound I-125]	3.98^[a]	
Cc1ncc(Oc2cccc(C3CC3)c2F)c(C(=O)NCC(F)c2ccc(Cl)c(Cl)c2)n1 (racemic) [Compound I-127]	4.38^[a]	
Cc1ncc(Oc2cccc(C(F)(F)F)c2)c(C(=O)O)n1 [Compound 1-01, 2-methyl-5-[3-(trifluoromethyl)phenoxy]pyrimidine-4-carboxylic Acid]		1.69
CCOC(=O)c1nc(C)nnc1Oc1cccc(C(F)(F)F)c1 [Compound 1-02, ethyl 3-methyl-6-[3-(trifluoromethyl)phenoxy]-1,2,4-triazine-5-carboxylate]		3.18
O=C(O)c1nc(C2CC2)ncc1Oc1cccc(C(F)(F)F)c1 [Compound 1-03]	2.49^[a]	
COc1ncc(Oc2cccc(C(F)(F)F)c2)c(C(=O)O)n1 [Compound 1-04]	1.96^[a]	
CCOC(=O)c1nc(C2CC2)nnc1Oc1cccc(C(F)(F)F)c1 [Compound 1-05]	3.95^[a]	
CCOC(=O)c1nc(C2CC2)nnc1Oc1cccc(Cl)c1F [Compound 1-06]	3.86^[a]	
CCOC(=O)c1nc(C2CC2)nnc1Oc1cccc(Br)c1F [Compound 1-07]	3.93^[a]	
CCOC(=O)c1nc(C2CC2)nnc1Oc1cccc(C2CC2)c1F [Compound 1-08]	4.19^[a]	
CCOC(=O)c1nc(C2CC2)nnc1Oc1cccc(C)c1F [Compound 1-09]	3.78^[a]	
CCOC(=O)c1nc(C2CC2)nnc1Oc1cccc(Br)c1 [Compound 1-10]	3.94^[a]	
C#Cc1cccc(Oc2nnc(C3CC3)nc2C(=O)OCC)c1 [Compound 1-11]	3.59^[a]	
CCOC(=O)c1nc(C2CC2)nnc1Oc1cccc(OC)c1 [Compound 1-12]	3.37^[a]	
O=C(O)c1nc(F)ncc1Oc1cccc(C(F)(F)F)c1 [Compound 1-13]	1.52^[a]	
CCc1ncc(Cl)c(C(=O)NCC(F)(F)c2ccc(C)cc2C)n1 [Compound 3-01]	3.77^[a]	
Cc1ccc(C(F)(F)CNC(=O)c2nc(C3CC3)ncc2Br)c(C)c1 [Compound 3-02]	4.08^[a]	
CSc1ncc(Br)c(C(=O)NCC(F)(F)c2ccc(C)cc2C)n1 [Compound 3-03]	4.05^[a]	

Structure (SMILES)	LogP	chromatographic logP
Cc1ccc(C(F)(F)CNC(=O)c2nc(C)ncc2Br)c(C)c1 [Compound 3-04, 5-bromo-N-[2-(2,4-dimethylphenyl)-2,2-difluoroethyl]-2-methylpyrimidine-4-carboxamide]		3.25
Cc1ncc(Oc2cccc(C(F)(F)F)c2)c(C(=O)NCC(F)(F)c2ccc(Cl)cc2)n1 [Compound I-002, N-[2-(4-chlorophenyl)-2,2-difluoroethyl]-2-methyl-5-[3-(trifluoromethyl)phenoxy]pyrimidine-4-carboxamide]		4.04
Cc1ccc(C(F)(F)CNC(=O)c2nc(C)ncc2Oc2cccc(C(F)(F)F)c2)c(C)c1 [Compound I-003]	4.32^[a]	
Cc1ncc(Oc2cccc(C(F)(F)F)c2)c(C(=O)NCC(F)(F)c2ccc(Br)cc2Cl)n1 [Compound I-004]	4.49^[a]	
Cc1nnc(Oc2cccc(C(F)(F)F)c2)c(C(=O)NCC(F)(F)c2ccc(Br)cc2Cl)n1 [Compound I-005, N-[2-(4-bromo-2-chlorophenyl)-2,2-difluoroethyl]-3-methyl-6-[3-(trifluoromethyl)phenoxy]-1,2,4-triazine-5-carboxamide]		4.26
Cc1nnc(Oc2cccc(C(F)(F)F)c2)c(C(=O)NCC(F)(F)c2ccc(Cl)cc2)n1 [Compound I-006]	3.85^[a]	
Cc1nnc(Oc2cccc(C(F)(F)F)c2)c(C(=O)NCC(F)(F)c2ccc(Cl)cc2Cl)n1 [Compound I-007]	4.20^[a]	
Cc1ccc(C(F)(F)CNC(=O)c2nc(C)ncc2Oc2cccc(C(F)(F)F)c2)c(Cl)c1 [Compound I-008]	4.37^[a]	
COc1ncc(Oc2cccc(C(F)(F)F)c2)c(C(=O)NCC(F)(F)c2ccc(C)cc2C)n1 [Compound I-009]	4.46^[a]	
CCc1ncc(Oc2cccc(C(F)(F)F)c2)c(C(=O)NCC(F)(F)c2ccc(C)cc2C)n1 [Compound I-011]	4.89^[a]	
CSc1ncc(Oc2cccc(C(F)(F)F)c2)c(C(=O)NCC(F)(F)c2ccc(C)cc2C)n1 [Compound I-012]	4.97^[a]	
Cc1ccc(C(F)(F)CNC(=O)c2nc(C)ncc2Oc2cccc(Cl)c2)c(C)c1 [Compound I-013]	4.30^[a]	
Cc1ccc(C(F)(F)CNC(=O)c2nc(C3CC3)ncc2Oc2cccc(Cl)c2)c(C)c1 [Compound I-014]	5.00^[a]	
Cc1ccc(C(F)(F)CNC(=O)c2nc(C)ncc2Oc2cccc(C3CC3)c2)c(C)c1 [Compound I-015, 5-(3-cyclopropylphenoxy)-N-[2-(2,4-dimethylphenyl)-2,2-difluoroethyl]-2-methylpyrimidine-4-carboxamide]		4.38
Cc1ncc(Oc2cccc(C3CC3)c2F)c(C(=O)NCCc2ncc(Cl)cn2)n1 [Compound I-016]	2.72^[a]	
Cc1ncc(Oc2cccc(C3CC3)c2F)c(C(=O)N[C@H]2CCOc3ccc(F)cc32)n1 [Compound I-017]	3.62^[a]	
Cc1ncc(Oc2cccc(C3CC3)c2F)c(C(=O)NCCc2ccc(C(F)(F)F)cn2)n1 [Compound I-018]	3.31^[a]	
COc1cccc(Oc2cnc(C)nc2C(=O)NCC(F)(F)c2ccc(C)cc2C)c1 [Compound I-019]	3.76^[a]	
Cc1ccc(C(F)(F)CNC(=O)c2nc(C)nnc2Oc2cccc(C3CC3)c2)c(Cl)c1 [Compound I-021]	4.19^[a]	
CC(=O)c1cccc(Oc2cnc(C)nc2C(=O)NCC(F)(F)c2ccc(C)cc2C)c1 [Compound I-022]	3.40^[a]	
Cc1ccc(C(F)(F)CNC(=O)c2nc(C)ncc2Oc2ccc3ccsc3c2)c(C)c1 [Compound I-023]	4.15^[a]	
Cc1ccc(C(F)(F)CNC(=O)c2nc(C3CC3)nnc2Oc2cccc(C(F)(F)F)c2)cc1C [Compound I-024]	4.66^[a]	

Structure (SMILES)	LogP	chromatographic logP
Cc1ccc(C(F)(F)CNC(=O)c2nc(C3CC3)nnc2Oc2cccc(Br)c2F)c(C)c1 [Compound I-025]	4.66^[a]	
Cc1ccc(C(F)(F)CNC(=O)c2nc(C)ncc2Oc2cc(F)c(F)cc2F)c(C)c1 [Compound I-026]	4.02^[a]	
Cc1ccc(C(F)=CNC(=O)c2nc(C3CC3)nnc2Oc2cccc(Br)c2F)c(C)c1 [Compound I-027]	5.36^[a]	
Cc1nnc(Oc2cccc(C3CC3)c2)c(C(=O)NCC(F)(F)c2ccc(Cl)cc2)n1 [Compound I-028]	4.01^[a]	
Cc1ncc(Oc2cccc(C3CC3)c2F)c(C(=O)NCCc2ccc3[nH]ccc3c2)n1 [Compound I-029]	3.21^[a]	
Cc1nnc(Oc2cccc(C3CC3)c2)c(C(=O)NCC(F)(F)c2ccc(C)c(C)c2)n1 [Compound I-031]	4.19^[a]	
Cc1ncc(Oc2cccc(C3CC3)c2F)c(C(=O)NCCc2cnc(C(F)(F)F)nc2)n1 [Compound I-032]	3.09^[a]	
Cc1cccc(Oc2cnc(C)nc2C(=O)NCC(F)(F)c2ccc(C)cc2C)c1 [Compound I-033]	4.06^[a]	
CON(CCc1ccc(Cl)cc1Cl)C(=O)c1nc(C)ncc1Oc1cccc(C2CC2)c1F [Compound I-034]	4.91^[a]	
Cc1ccc(C(F)(F)CNC(=O)c2nc(C)ncc2Oc2cccc(N(C)C)c2)c(C)c1 [Compound I-035]	3.88^[a]	
Cc1ccc(C(F)(F)CNC(=O)c2nc(C3CC3)nnc2Oc2cccc(C3CC3)c2F)c(C)c1 [Compound I-037]	4.81^[a]	
C#Cc1cccc(Oc2nnc(C3CC3)nc2C(=O)N/C=C(\F)c2ccc(C)cc2C)c1 [Compound I-038]	4.59^[a]	
Cc1ccc(C(F)(F)CNC(=O)c2nc(C)ncc2Oc2cccc(Cl)c2F)c(C)c1 [Compound I-039]	4.22^[a]	
Cc1ccc(/C(F)=C\NC(=O)c2nc(C3CC3)nnc2Oc2cccc(C3CC3)c2F)c(C)c1 [Compound I-040]	5.49^[a]	
Cc1ncc(Oc2cccc(C3CC3)c2F)c(C(=O)NCCc2ccc(C)o2)n1 [Compound I-041]	3.52^[a]	
Cc1ncc(Oc2cccc(C3CC3)c2F)c(C(=O)NCCc2cccc3[nH]ccc23)n1 [Compound I-042]	3.23^[a]	
Cc1ncc(Oc2cccc(C3CC3)c2F)c(C(=O)NCC(F)c2ccc(C)c(C)c2)n1 (stereo not shown) [Compound I-043]	4.22^[a]	
Cc1ccc(C(F)(F)CNC(=O)c2nc(C)ncc2Oc2cccc(OC(F)F)c2)c(C)c1 [Compound I-044]	3.98^[a]	
Cc1ncc(Oc2cccc(C3CC3)c2F)c(C(=O)NC2CCCc3ccc(Br)cc32)n1 (stereo not shown) [Compound I-045]	4.55^[a]	
Cc1ncc(Oc2cccc(C3CC3)c2F)c(C(=O)NC2CCOc3ccccc32)n1 (stereo not shown) [Compound I-046]	3.54^[a]	
